Source: patent publication EP0227593A1, “Use of chelating agents” (THE HOSPITAL FOR SICK CHILDREN, priority 1985, dated 1987)

What was measured:
[1] = test system: PB leukemia cell colonies; assay: Surface marker analysis of leukemia cell colonies grown with deferoxamine (immunocytochemical assay); assay type: cell-based, human; set-up: key to Ia intensity of staining / B4 intensity of staining / OKM1 intensity of staining / MY-4 intensity of staining: strong (+++); moderate (++); weak (+); conditions: colonies from cultures containing 2.5 µM deferoxamine
Procedure: Cell Culture Procedure: 2 x 10⁵ T-depleted cells were incubated with 40 % RPMI-methylcellulose, 20 % PHA-LCM, 10 % FCS, irradiated feeder cells (10⁵/dish), 16.6 % RPMI in 35 mm Petri dishes. The culture dishes were placed into a specialized modular incubator chamber (Billups-Rosenberg, Del Mar, CA) in a humidified atmosphere of 5 % O₂, 5 % CO₂ and balanced nitrogen for 3-6 days. After 2 days of incubation, the culture dishes were carefully examined. Colonies were counted at day 4. A cluster of more than 20 cells was defined as a colony. Individual colonies were plucked from the culture plates and smeared on microscope slides for further evaluation, using Wright stain and non-specific esterase staining. For control, 2 x 10⁵ irradiated feeder cells were cultured in the same assay system in each experiment to exclude their potential for colony formation Immunocytochemical Method: The cell surface antigens of air dried smears were detected using monoclonal antibodies and intestinal alkaline phosphatase, as previously described. This assay was performed to detect surface antigens on patients' PB and BM smears and colonies plucked from cultures. The slides were counter- stained in hematoxylin for light microscopy and the presence of surface antigen was indicated as bright red granular cellular inclusions. Morphologic details were well preserved, and a very high degree of correlation between morphology and surface antigen expression was observed. The intensity of staining was defined as strong (+++), moderate (++) and weak (+). Immunofluorescence Method: The cell surface phenotype was determined by indirect cell-surface fluorescence: A fluorescein-conjugated goat anti-mouse IgG (FAb')₂ was used as second antibody. The labelling was performed at room temperature in the presence of 0.2 % sodium azide. The percentage of cells with surface fluorescence was determined by counting cells stained in three replicate wells using an inverted phase-fluorescent microscope. Monoclonal Antibodies: The following monoclonal antibodies were used in these studies: anti-OKIa (Ortho Diagnostic Systems Inc. Raritan, NJ) to detect HLA-D framework antigen, anti-MY-7, anti-Mol and anti-MY-4 (coulter Immunology) to identify myelomonocytic markers, anti-Ig. anti-BA1, anti-BA2, anti-B1, and anti-B4 (Becton-Dickinson) to recognize cells of the B-cell lineage, anti-J5 (Coulter Immunology) to recognize cells bearing common ALL (CALLA) antigen and anti-Leu-1 and anti-Leu-4 (Coulter Immunology) to recognize cells of the T-cell lineage.
DFO and Blast Cell Differentiation: Individual blast colonies from the culture plates containing DFO 2.5 µM were characterized (Table 2). Compared to colonies grown without exposure to DFO, a marked change in cell surface antigen expression was observed.
PB leukemia cell colonies were plucked at random from cultures containing 2.5 µM deferoxamine compared to cultures without deferoxamine using the immunocytochemical assay.

patient's PB blast cells = assay: ALL blast colony assay; assay type: cell-based; conditions: Homo sapiens
Procedure: ALL Blast Colony Assay: The assay we used is a modification of previously described methods. T-cell depletion: Post-Ficoll mononuclear BM cells were incubated with neuraminidase sensitized sheep erthrocytes (SRBC) at 4°C for 2 hours, followed by gradient centrifugation. This procedure was repeated twice. Cells at the interface contained less than 0.5 % T-cells as assessed by AET sensitized SRBC rosette formation and using anti-Leu-4 and anti-Leu-5 monoclonal anti-T-cell antibodies (Becton Dickinson, CA). T-lymphocytes were obtained by recovery of rosetted cells from the pellet following lysis with Tris-buffered ammonium chloride (Sigma, St. Louis, MO). Feeder Cells: Post-Ficoll normal donors' PB cells were depleted of adherent cells by incubation on plastic Petri dishes with 10 % fetal calf serum for 90 min. at 37°C. […]
Cell Culture Procedure: 2 x 10⁵ T-depleted cells were incubated with 40 % RPMI-methylcellulose, 20 % PHA-LCM, 10 % FCS, irradiated feeder cells (10⁵/dish), 16.6 % RPMI in 35 mm Petri dishes. […] Colonies were counted at day 4. […] For control, 2 x 10⁵ irradiated feeder cells were cultured in the same assay system in each experiment to exclude their potential for colony formation Immunocytochemical Method: The cell surface antigens of air dried smears were detected using monoclonal antibodies and intestinal alkaline phosphatase, as previously described. […]

Structure (SMILES): CC(=O)N(O)CCCCCNC(=O)CCC(=O)N(O)CCCCCNC(=O)CCC(=O)N(O)CCCCCN [DFO, desferioxamine methanesulfonate]
- B4 Positive [1]: 30%
- B4 intensity of staining [1]: +++
- CALLA Positive [1]: 0%
- Ia Positive [1]: 80%
- Ia intensity of staining [1]: +++
- Leu-1 Positive [1]: 0%
- Leu-4 Positive [1]: 0%
- MY-4 Positive [1]: 60%
- MY-4 intensity of staining [1]: ++
- OKM1 Positive [1]: > 90%
- OKM1 intensity of staining [1]: +++
- inhibition at 2.15 µM (patient's PB blast cells; 2.15 µM DFO, read-out: reduction in blast colonies): 70%
- minimal effective concentration (patient's PB blast cells; patient's PB blast cells, read-out: DFO concentrations with significant decline in blast colonies): > 1.25 µM
